Laboratory results: US8741932B2, “Imidazopyridine derivatives” (Piramal Enterprises Limited, priority 2009, dated 2014)
One block for each molecule: values may come before it.

Tests used:
[1] = test system: IL-6; test: Human monocyte assay, LPS-stimulated IL-6; format: cell-based; conditions: human monocytes, 1 μg/ml LPS, 5 hours
Description: The assay was designed as in the reference, Physiol.
Peripheral blood mononuclear cells (hPBMC) were harvested from human blood and suspended in RPMI 1640 culture medium containing 10% FCS, 100 U/mL penicillin and […] streptomycin (assay medium). Monocytes in the hPBMCs were counted using a Coulter Counter following which the cells were resuspended at 2×10^5 monocytes/mL. A cell suspension containing 2×10^4 monocytes was aliquoted per well of a 96-well plate. Subsequently, the hPBMCs were incubated for 4-5 hours at 37° C., 5% CO2 (During the incubation, the monocytes adhered to the bottom of 96-well plastic culture plate). Following the incubation, the non-adherent lymphocytes were washed with assay medium and the adherent monocytes re-fed with assay medium. After a 48-hour incubation period (37° C., 5% CO2), monocytes were pretreated with various concentrations of representative compounds of present invention (refer to table 6 and 7) (prepared in DMSO) or vehicle (0.5% DMSO) for 30 minutes and stimulated with 1 μg/ml LPS (Escherchia coli 0111:B4, Sigma Chemical Co., St. Louis, Mo.). The incubation was continued for 5 hours at 37° C., 5% CO2. Supernatants were harvested, assayed for IL-6 and TNF-α by ELISA as described by the manufacturer (BD Biosciences, USA). Dexamethasone (10 μM) was used as standard for this assay. […] Biological results for both IL-6 and TNFα are indicated in Table 6 and Table 7 respectively.

[2] = target: T1, PI3Kα kinase (Homo sapiens, UniProt P42336); test: Kinase assay (PI3Kα); format: biochemical; conditions: read-out: IC50 (μM) for PI3K inhibition
T1 construct: purchased Millipore, USA
T1 sequence (P42336 whole entry): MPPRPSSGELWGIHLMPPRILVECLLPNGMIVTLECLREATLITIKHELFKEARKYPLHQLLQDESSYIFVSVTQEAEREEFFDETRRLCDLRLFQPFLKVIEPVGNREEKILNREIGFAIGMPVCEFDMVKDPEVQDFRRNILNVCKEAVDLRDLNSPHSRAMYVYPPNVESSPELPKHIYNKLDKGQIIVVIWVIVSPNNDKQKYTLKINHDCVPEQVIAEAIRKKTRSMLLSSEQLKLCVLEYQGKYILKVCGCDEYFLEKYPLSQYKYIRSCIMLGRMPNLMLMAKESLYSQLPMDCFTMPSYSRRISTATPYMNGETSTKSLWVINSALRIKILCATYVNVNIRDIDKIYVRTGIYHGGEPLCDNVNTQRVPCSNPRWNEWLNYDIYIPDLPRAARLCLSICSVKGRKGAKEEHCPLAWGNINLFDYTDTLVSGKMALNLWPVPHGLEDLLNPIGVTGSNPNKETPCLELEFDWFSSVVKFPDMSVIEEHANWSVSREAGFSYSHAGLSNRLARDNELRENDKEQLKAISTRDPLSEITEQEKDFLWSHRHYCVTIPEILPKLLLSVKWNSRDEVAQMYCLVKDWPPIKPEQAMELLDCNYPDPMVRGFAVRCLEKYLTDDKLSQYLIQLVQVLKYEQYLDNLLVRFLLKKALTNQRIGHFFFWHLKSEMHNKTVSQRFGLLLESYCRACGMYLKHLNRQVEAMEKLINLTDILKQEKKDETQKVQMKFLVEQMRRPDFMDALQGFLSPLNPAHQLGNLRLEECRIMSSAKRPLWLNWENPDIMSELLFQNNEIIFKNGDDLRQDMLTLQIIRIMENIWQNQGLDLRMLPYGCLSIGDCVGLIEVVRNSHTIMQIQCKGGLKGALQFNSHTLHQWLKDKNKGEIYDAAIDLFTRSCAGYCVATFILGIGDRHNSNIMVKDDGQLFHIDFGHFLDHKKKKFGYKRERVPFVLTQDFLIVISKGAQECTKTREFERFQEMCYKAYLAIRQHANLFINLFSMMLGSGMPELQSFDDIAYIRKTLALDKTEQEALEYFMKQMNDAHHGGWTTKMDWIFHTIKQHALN
T1 sequence (P27986 whole entry partner): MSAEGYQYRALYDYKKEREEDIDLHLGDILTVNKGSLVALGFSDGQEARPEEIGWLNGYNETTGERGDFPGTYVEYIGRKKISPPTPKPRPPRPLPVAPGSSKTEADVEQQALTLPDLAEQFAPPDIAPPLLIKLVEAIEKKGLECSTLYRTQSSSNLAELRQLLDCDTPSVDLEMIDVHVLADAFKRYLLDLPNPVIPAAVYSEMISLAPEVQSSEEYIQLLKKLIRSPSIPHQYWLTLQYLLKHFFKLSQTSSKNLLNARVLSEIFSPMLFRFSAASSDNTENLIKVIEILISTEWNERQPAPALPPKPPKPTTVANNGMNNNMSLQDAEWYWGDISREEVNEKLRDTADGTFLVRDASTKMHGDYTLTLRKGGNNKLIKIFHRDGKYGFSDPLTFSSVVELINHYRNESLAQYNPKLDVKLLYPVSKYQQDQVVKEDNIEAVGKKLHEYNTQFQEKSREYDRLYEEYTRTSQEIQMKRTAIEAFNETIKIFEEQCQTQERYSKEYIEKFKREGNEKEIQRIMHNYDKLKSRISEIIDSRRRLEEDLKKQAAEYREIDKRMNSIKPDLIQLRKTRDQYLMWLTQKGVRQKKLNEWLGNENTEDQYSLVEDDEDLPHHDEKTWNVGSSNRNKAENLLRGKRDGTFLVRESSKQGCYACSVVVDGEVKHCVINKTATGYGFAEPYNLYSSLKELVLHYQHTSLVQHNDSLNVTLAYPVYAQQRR
Description: The kinase reaction was carried out in a 25 μL volume in a 1.5 mL microcentrifuge tube. The reaction mixture consisted of kinase buffer (10 mM Hepes, pH 7.5, 50 mM MgCl2), 20 ng PI3Kα kinase (Millipore, USA), 12.5 μg phosphotidylinositol (PI), 10 μM ATP and 1 μCi ^32γ P […]. […] The reactions were incubated at 30° C. for 20 minutes and were terminated by adding 1:1 mixture of MeOH and CHCl3. The tube contents were mixed on a vortex mixer and centrifuged at 10000 rpm for 2 minutes. 10 μL of the organic (lower) phase was spotted on to a TLC plate (silica, mobile phase: n-propanol and 2 M glacial acetic acid in 65:35 ratio). The plates were dried and exposed to an X-ray film. The bands appearing as a result of ^32γ P incorporation in PI were quantitated using the Quantityl)ne (BioRad, USA) densitometry program. PI-103 (Calbiochem, USA) was used as a standard.

[3] = test system: STAT3; test: STAT3 bioassay (Hela Stat3-luc, luciferase); format: cell-based; conditions: Oncostatin M induction
Description: Cells were seeded (Hela Stat3-luc, ATCC P/N 30-2002) in a white 96 well plate (Nunc cat.no.136101) at a density of 20,000cells/well in 179 μl volume per well (DMEM from Sigma containing 10% FCS). The plate was incubated for 24 hours at 37° C./5% CO2. The cells (wells in triplicates) were then treated with 1 μl/well of 200× stock of the desired compound concentration prepared in 100% DMSO. Curcumin was used as a standard or positive control, added 10 μg/ml in triplicate. DMSO was used as medium control (1 μl/well added in triplicates). The plate was incubated at 37° C./5% CO2 for 1 hour. 20 μl/well Oncostatin M (Oncostatin M, Human, Recombinant, E. coli, Cat.No. 496260, 10 μg from Calbiochem) was added to treated wells, induction control (in triplicate) (1000 ng/ml stock prepared in serum free medium to get final concentration 100 ng/ml). The plate was then incubated for 7-8 hours at 37° C./5% CO2 for induction. A typical assay would consist of triplicate of medium control, triplicate of induction control, triplicate of positive/standard control and test compounds at desired concentration in triplicates. For termination Luciferase assay protocol was followed where the culture medium was removed from all the wells.
200 μl well of PBS was added to remove traces of medium and compound. The PBS was discarded. 40 μl/well of 1× lysis buffer was added to all the wells. The plate was incubated at RT for 20 minutes with intermittent shaking. 100 μl/well of LAB reagent was added to all the wells in dark. {LAB reagent for 1 plate=8 ml Luciferase assay buffer (LAB)+1 ml Coenzyme A (Sigma cat no. C3019) (2.1 mg/ml stock in LAB)+530 μL of ATP (Sigma cat.no.A2383) (5.85 mg/ml stock in LAB)+1 ml luciferin reagent (Promega cat no.245355) (2 mg/ml stock in LAB, protect from light)}.
The luminescence was immediately read on polar star. The values were expressed as percentage inhibition, in terms of treated values to that STAT3 (induction control). IC50 values were calculated from graphs using these percentages.

[4] = test system: A549; test: Cytotoxicity assay (propidium iodide), A549; format: cell-based; conditions: A549 (C1a, lung), 48 hours
[5] = test system: H460; test: Cytotoxicity assay (propidium iodide), H460; format: cell-based; conditions: H460 (C1b, lung), 48 hours
Description: (§1) Cells from cell lines as mentioned in the table given below were seeded at a density of 3000 cells/well in a white opaque 96-well plate. Following incubation at 37° C./5% CO2 for a period of 18-24 hours, the cells were treated with various concentrations (stock solution was prepared in DMSO and subsequent dilutions were made in media as per ATCC guidelines) of the representative compounds of present invention (refer table 3) for a period of 48 hours. At the end of treatment, the spent culture medium was discarded, the cells were washed with 1×PBS and 200 μl of 7 μg/ml propidium iodide was added to each well. The plates were frozen at −70° C. for at least 24 hours. For analysis, the plates were brought to RT, allowed to thaw and were read in PolarStar fluorimeter with the fluorescence setting. The percentage of viable cells in the non treated set of wells was considered to be 100 and the percentage viability following treatment was calculated accordingly. IC50 values were calculated from graphs plotted using these percentages.

[6] = test system: PC3; test: Cytotoxicity assay (propidium iodide), PC3; conditions: for inhibition at 1 µM: Homo sapiens, PC-3, read-out: % inhibition at 1 μM; for % inhibition at 1 μM: PC3 (C2a)
Description: as §1

[7] = test system: A2780; test: Cytotoxicity assay (propidium iodide), A2780; format: cell-based; conditions: for inhibition at 1 µM / % inhibition at 1 μM: A2780 (C3a)
Description: as §1

Molecule: Cc1ccccc1S(=O)(=O)N(C)/N=C/c1cnc2ccc(-c3cccnc3)cn12 [Example 53, (E)-N, 2-dimethyl-N′-((6-(pyridin-3-yl)imidazo[1,2-a]pyridin-3-yl)methylene)benzenesulfonohydrazide]
IC50 ([4]; Homo sapiens): 0.01 to 5 µM | IC50 ([1]; Monocyte): 0.001 to 5 µM | IC50 ([5]; Homo sapiens, NCI-H460): 0.01 to 5 µM

Molecule: CN(/N=C/c1cnc2ccc(-c3cccnc3)cn12)S(=O)(=O)c1ccccc1OC(F)(F)F [Example 54, (E)-N-methyl-N′-((6-(pyridin-3-yl)imidazo[1,2-a]pyridin-3-yl)methylene)-2-(trifluoromethoxy)benzenesulfonohydrazide]
IC50 ([4]; Homo sapiens): 0.01 to 5 µM | IC50 ([1]; Monocyte): 0.001 to 5 µM | IC50 ([5]; Homo sapiens, NCI-H460): 0.01 to 5 µM

Molecule: CN(/N=C/c1cnc2ccc(-c3cccnc3)cn12)S(=O)(=O)c1cc(C(F)(F)F)ccc1Cl [Example 65, (E)-2-chloro-N-methyl-N′-((6-(pyridin-3-yl)imidazo[1,2-a]pyridin-3-yl)methylene)-5-(trifluoromethyl)benzenesulfonohydrazide]
IC50 ([4]; Homo sapiens): 0.01 to 5 µM | IC50 ([1]; Monocyte): 0.001 to 5 µM | IC50 ([5]; Homo sapiens, NCI-H460): 0.01 to 5 µM

Molecule: COc1ccc(Br)cc1S(=O)(=O)N(C)/N=C/c1cnc2ccc(-c3cccnc3F)cn12 [Example 91, (E)-5-bromo-N′-((6-(2-fluoropyridin-3-yl)imidazo[1,2-a]pyridin-3-yl)methylene)-2-methoxy-N-methylbenzenesulfonohydrazide]
inhibition at 1 µM [6]: > 50% | inhibition at 1 µM ([7]; Homo sapiens): > 50%

Molecule: Cc1ccc(NC(=O)N(C)/N=C/c2cnc3ccc(-c4cccnc4)cn23)cc1 [Example 142, (E)-1-methyl-2-((6-(pyridin-3-yl)imidazo[1,2-a]pyridin-3-yl)methylene)-N-p-tolylhydrazinecarboxamide]
IC50 ([1]; Monocyte): ≥ 5 µM | inhibition at 1 µM [6]: 30 to 50% | inhibition at 1 µM ([7]; Homo sapiens): 30 to 50%

Molecule: COc1ccc(NC(=S)N(C)/N=C/c2cnc3ccc(-c4cccnc4)cn23)cc1 [Example 150, (E)-N-(4-methoxyphenyl)-1-methyl-2-((6-(pyridin-3-yl)imidazo[1,2-a]pyridin-3-yl)methylene)hydrazinecarbothioamide]
IC50 ([1]; Monocyte): ≥ 5 µM | inhibition at 1 µM [6]: 30 to 50% | inhibition at 1 µM ([7]; Homo sapiens): 30 to 50%

Molecule: CN(N=Cc1cnc2ccc(Br)cn12)C(=S)NCCN1CCOCC1 [Example 151, 2-((6-bromoimidazo[1,2-a]pyridin-3-yl)methylene)-1-methyl-N-(2-morpholinoethyl) hydrazinecarbothioamide]
IC50 [1]: 0.001 to 5 µM

Molecule: (E)-5-fluoro-N′-((6-(5-fluoropyridin-3-yl) imidazo[1,2-a]pyridin-3-yl)methylene)-N, 2-dimethylbenzenesulfonohydrazide [Example 132]
IC50 [4]: 0.01 to 5 µM | IC50 [5]: 0.01 to 5 µM

Molecule: N-methyl-1-phenyl-N′-((6-pyridin-3-yl) imidazo[1,2-a]pyridine-3-yl) methylene)benzenesulfonohydrazide [Example 28]
IC50 [1]: 0.001 to 5 µM | IC50 [3]: > 10 µM

Continued, in another order:

IC50 ([1]; Monocyte): ≥ 5 µM | IC50 [2]: 0.01 to 0.5 µM | IC50 ([3]; Homo sapiens): 0.1 to 5 µM
Molecule: Cc1cc(S(=O)(=O)N(C)N=Cc2cnc3ccc(-c4cccnc4)cn23)ccc1Br [Example 22, 4-Bromo-N, 3-dimethyl-N′-((6-(pyridine-3-yl)imidazo[1,2-a]pyridine-3-yl)methylene) benzenesulfonohydrazide]

IC50 ([1]; Monocyte): 0.001 to 5 µM
Molecule: COc1ccc(F)cc1S(=O)(=O)N(C)/N=C/c1cnc2ccc(-c3cccnc3F)cn12 [Example 88, (E)-5-Fluoro-N′-((6-(2-fluoropyridin-3-yl)imidazo[1,2-a]pyridin-3-yl)methylene)-2-methoxy-N-methylbenzenesulfonohydrazide]
IC50 ([4]; Homo sapiens): 0.01 to 5 µM | IC50 ([5]; Homo sapiens, NCI-H460): 0.01 to 5 µM

IC50 [2]: 0.01 to 0.5 µM
Molecule: Cc1ccc(F)cc1S(=O)(=O)N(C)/N=C/c1cnc2c(C)cc(-c3cccnc3)cn12 [Example 100, (E)-5-Fluoro-N,2-dimethyl-N′-((8-methyl-6-(pyridin-3-yl)imidazo[1,2-a]pyridin-3-yl)methylene)benzenesulfonohydrazide]
IC50 ([4]; Homo sapiens): 0.01 to 5 µM | IC50 ([5]; Homo sapiens, NCI-H460): 0.01 to 5 µM | IC50 ([7]; Homo sapiens, A2780 (C3a, ovarian), 48 hours): 0.01 to 5 µM

IC50 ([1]; Monocyte): 0.001 to 5 µM
Molecule: Cc1ccc(F)c(NC(=O)N(C)/N=C/c2cnc3ccc(-c4cccnc4)cn23)c1 [Example 143, (E)-N-(2-fluoro-5-methylphenyl)-1-methyl-2-((6-(pyridin-3-yl)imidazo[1,2-a]pyridin-3-yl)methylene)hydrazinecarboxamide]
inhibition at 1 µM [6]: 30 to 50% | inhibition at 1 µM ([7]; Homo sapiens): 30 to 50%

IC50 ([1]; Monocyte): ≥ 5 µM
Molecule: Cc1ccc(F)cc1NC(=O)N(C)/N=C/c1cnc2ccc(-c3cccnc3)cn12 [Example 144, (E)-N-(5-fluoro-2-methylphenyl)-1-methyl-2-((6-(pyridin-3-yl)imidazo[1,2-a]pyridin-3-yl)methylene)hydrazinecarboxamide]
inhibition at 1 µM [6]: 30 to 50% | inhibition at 1 µM ([7]; Homo sapiens): 30 to 50%

IC50 ([1]; Monocyte): 0.001 to 5 µM
Molecule: CN(N=Cc1cnc2ccc(Br)cn12)C(=O)NCc1ccccc1 [Example 145, N-benzyl-2-((6-bromoimidazo[1,2-a]pyridin-3-yl)methylene)-1-methylhydrazinecarboxamide]

IC50 [1]: ≥ 5 µM
Molecule: Cc1ccc(F)c(NC(=O)N(C)N=Cc2cnc3ccc(Br)cn23)c1 [Example 146]
% inhibition at 1 μM [6]: ++ (% Inhibition >50%) | % inhibition at 1 μM [7]: ++ (% Inhibition >50%)

IC50 [1]: ≥ 5 µM
Molecule: CN(/N=C/c1cnc2ccc(-c3cccnc3)cn12)C(=S)NCCN1CCOCC1 [Example 148]

IC50 ([1]; Monocyte): ≥ 5 µM
Molecule: CN(/N=C/c1cnc2ccc(-c3cccnc3)cn12)C(=S)Nc1ccc(C#N)cc1 [Example 149, (E)-N-(4-cyanophenyl)-1-methyl-2-((6-(pyridin-3-yl)imidazo[1,2-a]pyridin-3-yl)methylene)hydrazinecarbothioamide]
inhibition at 1 µM [6]: 30 to 50% | inhibition at 1 µM ([7]; Homo sapiens): 30 to 50%

IC50 [1]: 0.001 to 5 µM
Molecule: CN(N=Cc1cnc2ccc(Br)cn12)C(=S)Nc1ccc(C(F)(F)F)cc1 [Example 152, 2-((6-bromoimidazo[1,2-a]pyridin-3-yl)methylene)-1-methyl-N-(4-(trifluoromethyl)phenyl) hydrazinecarbothioamide]
% inhibition at 1 μM [6]: + (50% ≧ % Inhibition ≧ 30%) | % inhibition at 1 μM [7]: + (50% ≧ % Inhibition ≧ 30%)
